{"source": "patent US12545745B2", "about": "“Method for treating a degenerative neurological disorders comprising administering ASM inhibitor” (KYUNGPOOK NATIONAL UNIVERSITY INDUSTRY-ACADEMIC COOPERATION …, priority 2013, dated 2026)", "molecules": {"B1": {"name": "recombinant ASM: recombinant acid sphingomyelinase protein used to treat human fibroblast (protein)", "chain": "LALSDSRVLWAPAEAHPLSPQGHPARLHRIVPRLRDVFGWGNLTCPICKGLFTAINLGLKKEPNVARVGSVAIKLCNLLKIAPPAVCQSIVHLFEDDMVEVWRRSVLSPSEACGLLLGSTCGHWDIFSSWNISLPTVPKPPPKPPSPPAPGAPVSRILFLTDLHWDHDYLEGTDPDCADPLCCRRGSGLPPASRPGAGYWGEYSKCDLPLRTLESLLSGLGPAGPFDMVYWTGDIPAHDVWHQTRQDQLRALTTVTALVRKFLGPVPVYPAVGNHESTPVNSFPPPFIEGNHSSRWLYEAMAKAWEPWLPAEALRTLRIGGFYALSPYPGLRLISLNMNFCSRENFWLLINSTDPAGQLQWLVGELQAAEDRGDKVHIIGHIPPGHCLKSWSWNYYRIVARYENTLAAQFFGHTHVDEFEVFYDEETLSRPLAVAFLAPSATTYIGLNPGYRVYQIDGNYSGSSHVVLDHETYILNLTQANIPGAIPHWQLLYRARETYGLPNTLPTAWHNLVYRMRGDMQLFQTFWFLYHKGHPPSEPCGTPCRLATLCAQLSARADSPALCRHLMPDGSLPEAQSLWPRPLFC"}}, "key": {"ASM": {"target": "T1, ASM (Mus musculus, UniProt Q04519)", "T1 construct": "from tissue; host or cells: mouse serum/plasma and brain tissue (APP/PS1, RSD-stressed C57BL/6, FUS R521C mice)", "T1 sequence (Q04519 45-627)": "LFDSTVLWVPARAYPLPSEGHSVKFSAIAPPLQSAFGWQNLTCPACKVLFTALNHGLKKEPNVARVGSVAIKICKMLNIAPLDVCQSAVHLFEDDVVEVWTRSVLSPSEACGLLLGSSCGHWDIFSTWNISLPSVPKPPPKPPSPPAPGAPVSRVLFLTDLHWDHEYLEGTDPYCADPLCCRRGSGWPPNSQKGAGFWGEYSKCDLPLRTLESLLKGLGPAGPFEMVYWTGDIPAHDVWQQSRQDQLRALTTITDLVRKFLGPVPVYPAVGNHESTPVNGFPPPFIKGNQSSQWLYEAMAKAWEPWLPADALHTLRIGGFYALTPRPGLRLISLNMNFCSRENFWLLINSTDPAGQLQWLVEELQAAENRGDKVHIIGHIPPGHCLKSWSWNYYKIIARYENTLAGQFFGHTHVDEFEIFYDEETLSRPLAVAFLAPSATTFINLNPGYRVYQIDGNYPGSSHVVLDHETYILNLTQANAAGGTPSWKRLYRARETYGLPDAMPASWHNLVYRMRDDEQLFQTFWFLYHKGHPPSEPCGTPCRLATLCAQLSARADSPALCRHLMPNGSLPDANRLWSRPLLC", "assay": "ASM activity / concentration level in serum (plasma) and brain tissue of APP/PS1 mice (UPLC)", "format": "in vivo", "conditions": "APP/PS1 mice, AMI administered for four months, nine month old; FIG. 24", "experimental": "More specifically, 3 μl of plasma, brain tissue and fibroblast samples from each mouse were mixed with an ASM activity buffer, and stored at 37° C. The hydrolysis reaction was completed by adding 114 μl of ethanol to the mixed solution, and then the mixed solution was centrifuged. 30 μl of the supernatant was transferred into a glass vial, and then 5 μl was applied to the UPLC system. The ASM concentration level was quantified in comparison with a bodipy (aminoacetaldehyde) combined with sphingomyelin and ceramide. The sphingomyelin and ceramide levels were extracted and quantified according to a known method, by extracting lipid from the sample, resuspending the dried lipid extract in 25 μl of 0.2% Igepal CA-630 (Sigma-Aldrich), and quantifying the concentration level of each lipid using the UPLC system. […] The animal test conducted was approved by the Kyungpook National University Institutional Animal Care and Use Committee (IACUC). Transgenic mouse line overexpressing APPswe (hAPP695swe) and PS1 (presenilin-1M146V) based on C57BL/6 mice (Charles River, UK) were used as Alzheimer's animal models [hereinafter, APP mice: mice overexpressing APPswe, PS1 mice: overexpressing presenilin-1M146V; GlaxoSmithKline]. […] The concentration level of ASM was measured as follows. Specifically, 3μ ? of mouse serum, brain tissue and fibroblast samples were mixed with ASM activity buffer and stored at 37° C. 114 μ ? of ethanol was added to terminate the hydrolysis reaction, followed by centrifugation. […] The ASM concentration levels were quantified by comparison with sphingomyelin and Bodipy (aminoacetaldehyde) conjugated with ceramide. The extraction and quantification of the sphingomyelin and ceramide was carried out by extracting and drying the lipids from the sample according to a known conventional method, and resuspending the dried lipid extract to 25 μl of 0.2% Igepal CA-630 (Sigma-Aldrich), and the concentration levels of each lipid were quantitated using the UPLC system. […] The concentration level of ASM was measured as follows. […]"}, "β-amyloid": {"system": "β-amyloid", "assay": "β-amyloid deposition in brain tissue of APP/PS1 mice (thioflavin S, immunofluorescence, ELISA)", "format": "in vivo, mouse", "conditions": "cerebral cortex and hippocampus, AMI for four months, FIG. 25", "method": "First, the cerebral cortex and hippocampus tissue of each mouse prepared in Example 1-1 were isolated, and then a tissue fragment was obtained and this was dyed with thioflavin S according to a conventional known method. The results are illustrated in FIG. 3 (cerebral cortex) and FIG. 4 (hippocampus).\nAlso, immunofluorescence was performed according to a conventional known method using anti-20G10 (mouse, 1:1000) antibody against Aβ42, anti-G30 (rabbit, […]) antibody against Aβ40, anti-Iba-1 (rabbit, 1:500, Wako) antibody, anti-GFAP (rabbit, 1:500, DAKO) antibody and anti-active caspase3 (rabbit, 1:50, Chemicon) antibody. Tissue fragments were observed using a confocal laser scanning microscope equipped with Fluoview SV1000 imaging software (Olympus FV1000, Japan) or an Olympus BX51 microscope, and the percentage of the area of the dyed area with respect to the area of the entire tissue was quantified using Metamorph software (Molecular Devices).\nAlso, β-amyloid deposition was confirmed using commercially available ELISA kits (Biosource). More specifically, hemispheres of the brain of each mouse were homogenized in a buffer containing 0.02 M of guanidine. Thereafter, ELISA was performed for Aβ40 and Aβ42 according to the manufacturer's instructions.\nAfter fixing the cerebral and hippocampal tissues of the mice, 0.5% thioflavin S (Sigma-Aldrich), anti-20G10 antibodies (mouse, 1:1000) against Aβ42, anti-G30 antibodies (rabbit, […]) against Aβ40, anti-GFAP antibodies (rabbit, 1:500, DAKO), or anti-Iba-1 antibodies (rabbit, 1:500, Wako) were co-cultured. The tissues were analyzed using a laser scanning confocal microscope equipped with Fluoview SV1000 imaging software (Olympus FV1000, Japan) or an Olympus BX51 microscope. Percentage of stained area to total tissue area was quantified and analyzed using Metamorph software (Molecular Devices).\nAfter fixing the mouse brain and hippocampus, 0.5% thioflavin S (Sigma-Aldrich), anti-GFAP (rabbit, 1:500, DAKO), and anti-Iba-1 (rabbit, 1:500, WAKO) were co-cultured together. The regions were analyzed using a laser scanning confocal microscope equipped with Fluoview SV1000 imaging software (Olympus FV1000, Japan) or an Olympus BX51 microscope. Percentage of stained area to total tissue area was quantified and analyzed using Metamorph software (Molecular Devices).\nProteins were extracted from mouse brain and hippocampus, and the amounts of Abeta40 (KHB3481, Invitrogen) and Abeta42 (KHB3441, Invitrogen) were measured using ELISA."}, "APP/PS1 mice": {"system": "APP/PS1 mice", "assay": "Morris water maze (MWM) test in APP/PS1 mice", "format": "in vivo, mouse", "conditions": "AMI for four months, vs control group, FIG. 26", "method": "More specifically, wild type mice, APP/PS1/ASM^+/− mice, ASM^+/− mice and APP/PS1 mice were used. The mice were given four trials per day for 10 days to learn the task, and on day 11, the mice were given a probe trial in which the platform was removed. The escape latency during the test period and the time spent in the target platform on day 11 were measured. The results are illustrated in FIG. 7 and FIG. 8.\n(§1) MWM (Morris water maze) experiments were performed in a conventional manner to identify potential effects on learning and memory. Briefly, for the MWM test, mouse were learned the task four times a day for 10 days, followed by the removal of the platform on the 11th day and subsequently a probe trial performed.\nas §1, with “mice” for “mouse”"}, "human fibroblast": {"system": "human fibroblast", "assay": "Autophagy (LC3-I to LC3-II conversion) in human fibroblast treated with recombinant ASM, M6P or NH4Cl", "format": "cell-based", "method": "Human fibroblast acquired from the Coriell Institute, and was cultured in DMEM medium containing 15% FBS at 37° C. and 5% of CO2. The cell lines were treated with recombinant ASM (1 μM to 10 μM), and then Western blotting and densitometric quantification were performed in the same manner as Example 2-1. The results are illustrated in FIG. 17 and FIG. 18.\nIn order to confirm how ASM affects autophagy, a test was conducted as follows. Human fibroblast was treated with ASM alone, or treated with ASM in the presence of mannose-6-phosphate (M6P; 10 mM) relating to the action of placing lysosomal enzyme protein in lysosome, and then the accumulation of autophagosome was confirmed using Western blotting and densitometric quantification. The results are illustrated in FIG. 19.\nIn order to confirm whether ASM increases the formation rate of autophagosome, or decreases the degradation rate of autophagosome, autophagic flux assay was performed. […] The results are illustrated in FIG. 20.\nAlso, when treating with NH4Cl or ASM after culturing fibroblast of human with Alzheimer's disease in a serum-free medium or complete medium, the conversion rate from LC3-I to LC3-II was measured using Western blotting. The results are illustrated in FIG. 21 and FIG. 22."}, "[1]": {"conditions": "human fibroblast treated with ASM in the presence of M6P 10 mM, FIG. 19"}, "[2]": {"conditions": "human fibroblast, recombinant ASM 1 μM to 10 μM, FIG. 17, 18"}}, "note": "Counter-ions that a name gives are not always drawn."}
{"molecule": "CN(C)CCC=C1c2ccccc2CCc2ccccc21", "note": "[AMI, amitriptyline-hydrochloride, reference compound]", "values": [{"measurement": "ASM in brain tissue", "setting": "ASM", "result": "decreased"}, {"measurement": "ASM in serum", "setting": "ASM", "result": "decreased"}, {"measurement": "deposition of β-amyloid", "setting": "β-amyloid", "result": "inhibited"}, {"measurement": "ability to remember (escape latency, MWM)", "setting": "APP/PS1 mice", "result": "recovered by decrease in escape latency"}]}
{"molecule": "O=C[C@@H](O)[C@@H](O)[C@H](O)[C@H](O)COP(=O)(O)O", "note": "[M6P, mannose-6-phosphate, reference compound]", "values": [{"measurement": "accumulation of ASM-induced autophagosome", "setting": "human fibroblast; [1]", "result": "decreased"}, {"measurement": "conversion to LC3-II", "setting": "human fibroblast; [1]", "result": "decreased"}]}
{"molecule": "Cl.N", "note": "[NH4Cl, reference compound]", "values": [{"measurement": "LC3-II level", "setting": "human fibroblast; fibroblast of human with Alzheimer's disease, serum-free medium (autophagy induced), NH4Cl added, FIG. 21", "result": "increased significantly"}]}
{"molecule": "B1", "values": [{"measurement": "amount of LC3-II (autophagic flux assay)", "setting": "human fibroblast; cells treated with ASM and NH4Cl, FIG. 20", "result": "no significant change"}, {"measurement": "accumulation of LC3-II", "setting": "human fibroblast; fibroblast of human with Alzheimer's disease, serum-free medium (autophagy induced), treated with ASM, FIG. 22", "result": "increased significantly"}, {"measurement": "conversion from LC3-I to LC3-II", "setting": "human fibroblast; [2]", "result": "takes place depending on the concentration"}, {"measurement": "expression of beclin-1", "setting": "human fibroblast; [2]", "result": "no significant change"}]}
